Values quoted from earlier work as cited in US20230338417A1, “Improved Pharmaceutical Preparation” (priority 2020, published 2023).

Compound: [O-][Cl+2]([O-])O [chloric acid]
- Acid dissociation constant as pKa at 298K: 0

Compound: peroxochloric acid
- Acid dissociation constant as pKa at 298K: approx. 6.2
